Among the data in US11427567B2, “Imidazolyl pyrimidinylamine compounds as CDK2 inhibitors” (Incyte Corporation, priority 2019, dated 2022) are IC50 values, retold here.

What is called IC50 is the concentration that gives 50% inhibition. Higher therefore signals weaker potency.

SMILES strings stand for the structures.

This assay addresses CDK2/Cyclin E1 (Homo sapiens (Human), UniProt P24941). Nature of the assay: CDK2/Cyclin E1 HTRF enzyme activity assay (Example A). It counts as biochemical. Conditions: 1 mM ATP. As for the experimental part: Assays were conducted in white 384-well polystyrene plates in a final reaction volume of 8 μL. […] HTRF signals were read after 1 hour at room temperature on a PHERAstar FS plate reader (BMG Labtech). Data was analyzed with IDBS XLFit and GraphPad Prism 5.0 software using a three or four parameter dose response curve to determine IC50 for each compound.
On the technique in general: Time-resolved FRET reads energy transfer from a long-lived donor to a nearby acceptor.
`Cc1nc(-c2nc(N[C@H]3CCN(S(C)(=O)=O)C[C@H]3F)ncc2C(F)(F)F)cn1-c1ccc(CN2CCN(C)CC2)cc1F` [Example 387, N-((3R,4S)-3-Fluoro-1-(methylsulfonyl)piperidin-4-yl)-4-(1-(2-fluoro-4-((4-methylpiperazin-1-yl)methyl)phenyl)-2-methyl-1H-imidazol-4-yl)-5-(trifluoromethyl)pyrimidin-2-amine] gave an IC50 of at most 50 nM.
The figure for `CS(=O)(=O)N1CCC(Nc2ncc(C(F)(F)F)c(-c3cn(-c4ccnc(N5CCOCC5)c4Cl)cn3)n2)CC1` [Example 320] is at most 50 nM.
Take `CC1(O)CN(Cc2ccc(-n3cnc(-c4nc(NC5CCN(S(C)(=O)=O)CC5)ncc4C(F)(F)F)c3)c(Cl)c2)C1` [Example 194, 1-(3-Chloro-4-(4-(2-((1-(methylsulfonyl)-piperidin-4-yl)amino)-5-(trifluoromethyl)-pyrimidin-4-yl)-1H-imidazol-1-yl)benzyl)-3-methylazetidin-3-ol]: the IC50 was at most 50 nM.
The same measure for `CNCc1ccc(-n2cnc(-c3nc(NC4CCN(S(C)(=O)=O)CC4)ncc3C(F)(F)F)c2)c(Cl)c1` [Example 3, 4-(1-(2-Chloro-4-((methylamino)methyl)phenyl)-1H-imidazol-4-yl)-N-(1-(methylsulfonyl)piperidin-4-yl)-5-(trifluoromethyl)pyrimidin-2-amine]: at most 50 nM.
The figure for `CS(=O)(=O)N1CCC(Nc2ncc(C(F)(F)F)c(-c3cn(-c4ccc(CN5C6COCC5C6)cc4Cl)cn3)n2)CC1` [Example 214, 4-(1-(4-((3-Oxa-6-azabicyclo[3.1.1]-heptan-6-yl)methyl)-2-chlorophenyl)-1H-imidazol-4-yl)-N-(1-(methylsulfonyl)-piperidin-4-yl)-5-(trifluoromethyl)-pyrimidin-2-amine] is at most 50 nM.
The same measure for `Cc1nc(-c2nc(NC3CCN(S(C)(=O)=O)CC3)ncc2C(F)(F)F)cn1-c1ccc(C2CCN(C)CC2)cc1F` [Example 161, 4-(1-(2-Fluoro-4-(1-methylpiperidin-4-yl)phenyl)-2-methyl-1H-imidazol-4-yl)-N-(1-(methyl-sulfonyl)piperidin-4-yl)-5-(trifluoro-methyl)pyrimidin-2-amine]: at most 50 nM; for `C[C@@H]1CN(S(C)(=O)=O)CC[C@@H]1Nc1ncc(C(F)(F)F)c(-c2cn(-c3ccc4nccnc4c3Br)cn2)n1` [Example 156, 4-(1-(5-Bromoquinoxalin-6-yl)-1H-imidazol-4-yl)-N-((3R,4S)-3-methyl-1-(methylsulfonyl)piperidin-4-yl)-5-(trifluoromethyl)pyrimidin-2-amine]: at most 50 nM.
As for `CN1CCN(Cc2cc(F)c(-n3cnc(-c4nc(NC5CCN(S(C)(=O)=O)CC5)ncc4C(F)(F)F)c3)c(F)c2)CC1=O` [Example 409, 4-(3,5-Difluoro-4-(4-(2-((1-(methylsulfonyl)piperidin-4-yl)amino)-5-(trifluoromethyl)pyrimidin-4-yl)-1H-imidazol-1-yl)benzyl)-1-methylpiperazin-2-one], the IC50 is at most 50 nM.
The figure for `CC1(F)CN(Cc2ccc(-n3cnc(-c4nc(NC5CCN(S(C)(=O)=O)CC5)ncc4C(F)(F)F)c3)c(Cl)c2)C1` [Example 196, 4-(1-(2-Chloro-4-((3-fluoro-3-methyl-azetidin-1-yl)methyl)-phenyl)-1H-imidazol-4-yl)-N-(1-(methyl-sulfonyl)piperidin-4-yl)-5-(trifluoromethyl)-pyrimidin-2-amine] is at most 50 nM.
The same measure for `CS(=O)(=O)N1CCC(Nc2ncc(C(F)(F)F)c(-c3cn(-c4cccc(F)c4C#N)cn3)n2)CC1` [Example 56, 2-Fluoro-6-(4-(2-((1-(methylsulfonyl)piperidin-4-yl)amino)-5-(trifluoromethyl)pyrimidin-4-yl)-1H-imidazol-1-yl)benzonitrile]: at most 50 nM; for `CC(O)c1ccc(-n2cnc(-c3nc(NC4CCN(S(C)(=O)=O)CC4)ncc3C(F)(F)F)c2)c(Cl)c1` (centres unmarked) [Example 248, 1-(3-Chloro-4-(4-(2-((1-(methylsulfonyl)piperidin-4-yl)amino)-5-(trifluoromethyl)pyrimidin-4-yl)-1H-imidazol-1-yl)phenyl)ethan-1-ol]: at most 50 nM; for `Cc1nc(-c2nc(NC3CCN(S(C)(=O)=O)CC3)ncc2C(F)(F)F)cn1-c1ccc(CN2CCC2)cc1Cl` [Example 284, 4-(1-(4-(Azetidin-1-ylmethyl)-2-chlorophenyl)-2-methyl-1H-imidazol-4-yl)-N-(1-(methylsulfonyl)piperidin-4-yl)-5-(trifluoromethyl)pyrimidin-2-amine]: at most 50 nM.
The same measure for `N#Cc1cccc(-n2cnc(-c3nc(NC4CCN(S(=O)(=O)C5CC5)CC4)ncc3C(F)(F)F)c2)c1C(F)(F)F` [Example 92, 3-(4-(2-((1-(Cyclopropylsulfonyl)piperidin-4-yl)amino)-5-(trifluoromethyl)pyrimidin-4-yl)-1H-imidazol-1-yl)-2-(trifluoromethyl) benzonitrile]: at most 50 nM; for `CS(=O)(=O)N1CCC(Nc2ncc(C(F)(F)F)c(-c3cn(-c4cccc(CN5CC(C#N)C5)c4Cl)cn3)n2)CC1` [Example 463, 1-(2-Chloro-3-(4-(2-((1-(methylsulfonyl)piperidin-4-yl)amino)-5-(trifluoromethyl)pyrimidin-4-yl)-1H-imidazol-1-yl)benzyl)azetidine-3-carbonitrile]: at most 50 nM; for `CN(C)C1CCN(c2ccc(-n3cnc(-c4nc(NC5CCN(S(C)(=O)=O)CC5)ncc4C(F)(F)F)c3)c(Cl)c2)C1` (centres unmarked) [Example 143, 4-(1-(2-Chloro-4-(3-(dimethylamino)-pyrrolidin-1-yl)-phenyl)-1H-imidazol-4-yl)-N-(1-(methylsulfonyl)-piperidin-4-yl)-5-(trifluoromethyl)-pyrimidin-2-amine]: at most 50 nM.
Molecule `CS(=O)(=O)N1CCC(Nc2ncc(C(F)(F)F)c(-c3cn(-c4ccc(Cn5ccnc5)cc4Cl)cn3)n2)CC1` [Example 238, 4-(1-(4-((H-Imidazol-1-yl)methyl)-2-chlorophenyl)-1H-imidazol-4-yl)-N-(1-(methylsulfonyl)piperidin-4-yl)-5-(trifluoromethyl)pyrimidin-2-amine] showed an IC50 of at most 50 nM.
The same measure for `Cc1nc(-c2nc(NC3CCN(S(C)(=O)=O)CC3)ncc2C(F)(F)F)cn1-c1ccc(CN(C)C)cc1F` [Example 279, 4-(1-(4-((Dimethylamino)methyl)-2-fluorophenyl)-2-methyl-1H-imidazol-4-yl)-N-(1-(methylsulfonyl)piperidin-4-yl)-5-(trifluoromethyl)pyrimidin-2-amine]: at most 50 nM; for `CCN1CCN(Cc2cc(F)c(-n3cnc(-c4nc(N[C@H]5CCN(S(C)(=O)=O)C[C@H]5F)ncc4C(F)(F)F)c3)c(F)c2)CC1` [Example 447, 4-(1-(4-((4-Ethylpiperazin-1-yl)methyl)-2,6-difluorophenyl)-1H-imidazol-4-yl)-N-((3R,45)-3-fluoro-1-(methylsulfonyl)piperidin-4-yl)-5-(trifluoromethyl)pyrimidin-2-amine]: at most 50 nM.
In turn, `CS(=O)(=O)N1CCC(Nc2ncc(C(F)(F)F)c(-c3cn(-c4ccc5cccnc5c4Cl)cn3)n2)CC1` [Example 165, 4-(1-(8-Chloroquinolin-7-yl)-1H-imidazol-4-yl)-N-(1-(methyl-sulfonyl)piperidin-4-yl)-5-(trifluoromethyl)-pyrimidin-2-amine] came in with a 50% inhibitory concentration (IC50) of at most 50 nM.
Molecule `Cn1nccc1-c1ccc(-n2cnc(-c3nc(NC4CCN(S(C)(=O)=O)CC4)ncc3C(F)(F)F)c2)c(Cl)c1` [Example 119, 4-(1-(2-Chloro-4-(1-methyl-1H-pyrazol-5-yl)phenyl)-1H-imidazol-4-yl)-N-(1-(methylsulfonyl)piperidin-4-yl)-5-(trifluoromethyl)pyrimidin-2-amine] came in with an IC50 of at most 50 nM.
Molecule `CS(=O)(=O)N1CCC(Nc2ncc(C(F)(F)F)c(-c3cn(-c4ccc(N5CC[C@H](O)C5)cc4Cl)cn3)n2)CC1` [Example 139, (S)-1-(3-Chloro-4-(4-(2-((1-(methyl-sulfonyl)piperidin-4-yl)amino)-5-(trifluoromethyl)-pyrimidin-4-yl)-1H-imidazol-1-yl)-phenyl)pyrrolidin-3-ol] registered an IC50 of at most 50 nM.
The figure for `CS(=O)(=O)N1CCC(Nc2ncc(C(F)(F)F)c(-c3cn(-c4ccc5ncccc5c4Br)cn3)n2)CC1` [Example 164, 4-(1-(5-Bromoquinolin-6-yl)-1H-imidazol-4-yl)-N-(1-(methyl-sulfonyl)piperidin-4-yl)-5-(trifluoromethyl)-pyrimidin-2-amine] is at most 50 nM; for `Cc1nc(CN(C)C)ccc1-n1cnc(-c2nc(NC3CCN(S(C)(=O)=O)CC3)ncc2C(F)(F)F)c1` [Example 263, 4-(1-(6-((Dimethylamino)methyl)-2-methylpyridin-3-yl)-1H-imidazol-4-yl)-N-(1-(methylsulfonyl)piperidin-4-yl)-5-(trifluoromethyl)pyrimidin-2-amine] it is at most 50 nM.
Turning to `COc1ccc(-n2cnc(-c3nc(NC4CCN(S(C)(=O)=O)CC4)ncc3C(F)(F)F)c2)c(C(F)F)n1` [Example 75, 4-(1-(2-(Difluoromethyl)-6-methoxypyridin-3-yl)-1H-imidazol-4-yl)-N-(1-(methylsulfonyl)piperidin-4-yl)-5-(trifluoromethyl)pyrimidin-2-amine], the IC50 is at most 50 nM.
Take `CC1(O)CN(Cc2cccc(-n3cnc(-c4nc(NC5CCN(S(C)(=O)=O)CC5)ncc4C(F)(F)F)c3)c2C(F)(F)F)C1` [Example 379, 3-Methyl-1-(3-(4-(2-((1-(methylsulfonyl)piperidin-4-yl)amino)-5-(trifluoromethyl)pyrimi-din-4-yl)-1H-imidazol-1-yl)-2-(trifluoromethyl)benzyl) azetidin-3-ol]: the IC50 was at most 50 nM.
The figure for `CC(C)NCc1cc(F)c(-n2cnc(-c3nc(N[C@@H]4CCN(S(C)(=O)=O)C[C@H]4F)ncc3C(F)(F)F)c2)c(F)c1` [Example 391, 4-(1-(2,6-Difluoro-4-((isopropylamino)methyl)phenyl)-1H-imidazol-4-yl)-N-((3R,4R)-3-fluoro-1-(methylsulfonyl)piperidin-4-yl)-5-(trifluoromethyl)pyrimidin-2-amine] is at most 50 nM.
